Test: Human HepG2 cell viability assay in 384 well format
Assay type: toxicity, cell-based
Parameters: dose 125 nL, time 70.5 hour; concentration not given beside the values
Conditions: HepG2 cells, read-out: Inhibition

Row | SMILES | cytotoxicity at 70.5 h
1 | Cc1ccc(C(=O)N2CCc3ncnc(-c4cnn(C)c4)c3CC2)o1 | -7.08%
2 | CN1CCN(C(=O)c2ccc3c(c2)[nH]c(=O)n3C2CCCC2)CC1 | 9.54%
3 | Cc1nc(CCNC(=O)CC2CCN(C(C)C)CC2)sc1Cl | 45.7%
4 | CC(C)Cn1ncc(C(=O)NS(=O)(=O)c2ccccc2)c1C1CC1 | -8.45%
5 | COc1ccc2c(c1)OCC(CNC(=O)c1cc[nH]c1C)C2 (centres undefined) | -19.4%
6 | CCc1noc(CS(=O)(=O)c2cccc(OC)c2)n1 | 4.71%
7 | O=C(Cn1ccc2c(Cl)cccc21)N[C@@H](C(=O)O)c1ccccc1 | 0.804%
8 | O=C(CCN1CCCC1)N1CC[C@@H](c2ccc3ccccc3c2)[C@H](O)C1 | -21%
9 | CCc1cn[nH]c1C1CCN(C(=O)c2cccc(O)c2C)CC1 | -12.3%
10 | N#CC1(C(=O)N2CCN(c3nccs3)CC2)CCCCC1 | -10.1%
11 | CSCC(C)(O)CNS(=O)(=O)c1ccc(F)cc1 (centres undefined) | -7.51%
12 | CN1CCN(Cc2cn3c(n2)CN(Cc2ccccn2)CC3)CC1 | -9.35%
13 | O=C(CS(=O)(=O)Cc1cccc(Br)c1)Nc1cn[nH]c1 | -2.81%
14 | c1cn(Cc2nnc(C3CCN(C4CCOCC4)CC3)n2C2CC2)cn1 | -4.93%
15 | CCn1cc(NC(=O)N2CCN(CCSc3ccccc3)CC2)cn1 | -7.68%
16 | Cc1ncc(C(=O)NC2CCc3nccn3C2)c(C(C)C)n1 (centres undefined) | -3.83%
17 | OC(CN1CCN(c2ncccn2)CC1)c1cccc(F)c1 (centres undefined) | -9.46%
18 | CS(=O)(=O)N1C[C@H]2CCC[C@@]2(COc2ccccn2)C1 | -16.1%
19 | O=C(CN1CCN(c2nccs2)CC1)Nc1cccnc1 | -7.83%
20 | CN1CCN2CCN(Cc3cnc(NCc4ccccc4)nc3)CC2C1 (centres undefined) | 24%
21 | CNC(=O)N1CCC2(CC1)CN(C)Cc1cc(F)ccc12 | 2.33%
22 | O[C@H]1CC[C@@H](Cc2cc(-c3ccccn3)on2)O[C@@H]1CNCC1CC1 | -7.3%
23 | Cc1ccc(NCc2ccco2)cc1N1CCOC1=O | -16%

Row | SMILES | cytotoxicity at 70.5 h
24 | CNc1cncc(C2CCCN2Cc2c[nH]cn2)n1 (centres undefined) | -18.1%
25 | CC(CNC(=O)c1cnc[nH]1)Oc1ccccc1Br (centres undefined) | -15.7%
26 | Cc1noc(C(C)C)c1C(=O)NCCCN1CCCCCC1=O | -7.03%
27 | CCCc1nn(Cc2ccc(Br)s2)c(=O)o1 | -23.4%
28 | O=C(CCc1ccccc1)N1CCCC(c2n[nH]c3nccnc23)C1 (centres undefined) | -6.72%
29 | Cn1cc(NS(=O)(=O)c2ccc3c(c2)CCCC3)ccc1=O | 22.1%
30 | CNC(=O)NC(=O)CN1CCC(c2c[nH]c3ccc(OC)cc23)CC1 | -5.75%
31 | COc1ccc(C(C)(C)C)cc1CN1CCn2c(CO)nnc2C1 | 6.88%
32 | CCn1c(N)nc2cc(C(=O)N3CCN(c4nccs4)CC3)cnc21 | -6.84%
33 | CN(CCNC(=O)c1cnc(-c2ccncc2)nc1)S(C)(=O)=O | -7.17%
34 | COc1ccc(CN2C[C@@H](CN(C)C)[C@@H](CO)C2)cc1CN1CCCC1 | 5.87%
35 | Nc1cc2c(nn1)CCN(C(=O)c1csc(-c3ccco3)n1)C2 | -4.34%
36 | COC(=O)CN1CC(c2nc(Cc3ccccc3)no2)C1 | -6.57%
37 | Cc1cccc(C2CCCN2C(=O)CN(C)S(C)(=O)=O)c1C (centres undefined) | -5.26%
38 | Cc1ccoc1CNCc1nnc2n1CCCC2C(F)(F)F (centres undefined) | -3.7%
39 | COc1ccc(-c2nccc(C3CCCN3C)n2)cc1 (centres undefined) | -2.22%
40 | Cc1nnc(CCNC(=O)[C@H]2CNC[C@@H](C(=O)N3CCCC3)C2)s1 | -6.7%
41 | N#Cc1ccc(CN(CC(N)=O)Cc2cccc(F)c2)cc1 | -2.99%
42 | Cc1nc(C)c(C)c(NCCSc2ccccn2)n1 | -6.54%
43 | O=S(=O)(NC[C@]12COC[C@H]1CN(CCc1ccccc1)C2)C1CC1 | -2.87%
44 | O=C(c1ccc(F)c(F)c1)N1CCN2CCCC2C1 (centres undefined) | 3.92%
45 | CCn1ccnc1CN(C)C(C(=O)O)c1ccc(C(C)(C)C#N)cc1 (centres undefined) | -4.97%
46 | O=C(CN1CCCC1c1noc(C2CC2)n1)NCCc1ccsc1 (centres undefined) | 4.35%

Row | SMILES | cytotoxicity at 70.5 h
47 | CN(C)C(=O)c1ccc(NCCNc2ccc3ccccc3n2)nc1 | 45.4%
48 | CN1CCC/C1=N\S(=O)(=O)c1ccc(NC(=O)Cc2cccs2)cc1 | -2.68%
49 | COc1ccc(S(=O)(=O)NCC(c2cccn2C)N(C)C)c(C)c1 (centres undefined) | -12.6%
50 | COCC(=O)N1CCCC1c1cccc(C)c1C (centres undefined) | 4.58%
51 | C[C@H]1C[C@@H]2CCN(C(=O)c3ccccn3)C[C@H]2O1 | -2.22%
52 | Cc1nc(CN2CCN(C(C)c3nc(C4CC4)no3)CC2)oc1C (centres undefined) | -3.6%
53 | CC(=O)N1CCCC(Cc2cncc(Br)c2)CC1 (centres undefined) | 19.5%
54 | CCc1cnc(CNC(=O)N2CCCC(C(=O)NC)C2)s1 (centres undefined) | 12.5%
55 | CCCNC(=O)c1nn(CC)cc1NC(=O)C(C)n1ncc(Cl)c1C (centres undefined) | -5.37%
56 | Cc1ccc(S(=O)(=O)NC(=O)COc2ccc(CC#N)cc2)s1 | 2.71%
57 | COCCN1CCOCC12CCN(c1nccs1)CC2 | -20.8%
58 | C[C@@H]1CN(C(=O)C2CCS(=O)(=O)CC2)C[C@@]1(O)C1CC1 | -19.6%
59 | Cc1nc(NCc2noc(C3CCCO3)n2)c2sccc2n1 (centres undefined) | 31.3%
60 | O=C(c1cccs1)N1CCC2(CC1)CN(c1cncnc1)C(=O)CO2 | -12.3%
61 | O=C(O)C1CN(Cc2cnc(C3CCCCC3)nc2)CCO1 (centres undefined) | 17.1%
62 | Cn1cnnc1C1CCCN(C(=O)c2cc(-c3ccccc3)on2)C1 (centres undefined) | -9.15%
63 | COCC1CN(C(=O)Cc2cccc(F)c2)Cc2ccnn2C1 (centres undefined) | -5.69%
64 | COC[C@@]12CCO[C@@H]1CCN(C(=O)COc1ccc(C)cc1)C2 | -2.71%
65 | CCc1nccn1C1CCCN(C(=O)c2ccc3c(c2)OCO3)C1 (centres undefined) | -6.7%
66 | COc1ccc(-n2c(SC)nc(O)c(Cc3ccccc3)c2=O)cc1 | -2.29%
67 | CCc1nccn1CCC(=O)N1CC[C@@H](c2ccc(F)cc2)[C@H](O)C1 | -12.3%
68 | CN1CCC(c2cccc(Cc3ccc(F)cc3)n2)CC1 | -13.1%
69 | O=C(C1CCOCC1)N1CCc2onc(COc3cccnc3)c2C1 | 0.0469%

Row | SMILES | cytotoxicity at 70.5 h
70 | Cc1ccc(-c2ncc(CN3CCOC(c4ccco4)C3)s2)o1 (centres undefined) | -6.87%
71 | CN(C)C(C(=O)N1CCC(C#N)CC1)c1ccccc1F (centres undefined) | -5.19%
72 | Cc1ccn(-c2cccc(C(=O)N3CCCC(n4ccnc4C)C3)c2)n1 (centres undefined) | -11.3%
73 | CN(C(=O)CSc1ccccn1)C1CCCN(CCc2ccccc2)C1 (centres undefined) | -7.26%
74 | Cc1cc(C)n(CC2CCCN2CC(=O)Nc2cc(C(C)C)no2)n1 (centres undefined) | 14.2%
75 | O=S1(=O)c2ccccc2C(O)CN1CCO (centres undefined) | -5.7%
76 | COCCc1nnc(NC(=O)Cc2ccccc2Cl)o1 | -13.9%
77 | Cc1ccc(CN(C)C(=O)CN2CCCC(Cn3cncn3)C2)o1 (centres undefined) | -5.76%
78 | CC(C(=O)NCc1ccc(N2CCNC(=O)C2)cc1)n1cncn1 (centres undefined) | 4.32%
79 | CN(C)C(=O)[C@@H]1C[C@H]2OCC[C@H]2N(CCOc2ccc(Cl)cc2)C1 | -4.26%
80 | COc1cc(I)c(Cl)cc1C(=O)N(C)CC(=O)NC(C)(C)C | -23.4%
81 | CN(C)[C@H]1CCCCN(C(=O)CCc2csc(N)n2)C1 | -6.16%
82 | CSC1(CNC(=O)N(C)Cc2ccc(Cl)s2)CCOCC1 | 30.6%
83 | COc1cccc(OC)c1C(=O)N1CC(=O)N(C2CCC2)CC(O)C1 (centres undefined) | -0.00128%
84 | Cc1nc(O)cc(C2CCCN(C(=O)CN(C)c3ccccc3)C2)n1 (centres undefined) | 1.65%
85 | CCOCCNC(=O)c1ccn(S(=O)(=O)c2ccc(C)cc2)c1 | -2.02%
86 | CCN(Cc1ccoc1)C(=O)c1cc(S(N)(=O)=O)c(C)o1 | -5.31%
87 | O=C(NS(=O)(=O)c1cccnc1)C1CC(c2ccccc2)=NO1 (centres undefined) | -4.92%
88 | COCc1nc(CNC2CCCC(C)(C)C2)no1 (centres undefined) | -9.03%
89 | O=C(NC1CCN(c2ncccn2)CC1)c1sccc1C1CC1 | -5.49%
90 | CC(C)(O)CCc1ccc(C(=O)NCC2CCCOC2)cc1 (centres undefined) | -2.37%
91 | Cc1cc(F)cc(S(=O)(=O)Nc2noc(C)n2)c1 | -1.08%
92 | Cn1ccc2c(C(=O)NCC3(C(N)=O)CCOCC3)cccc21 | 1.25%

Row | SMILES | cytotoxicity at 70.5 h
93 | O=C(NC1CC1)N1CC[C@@H](O)[C@@H]1Cc1ccccc1 | 0.741%
94 | Cc1ncsc1C(=O)OCCN1CCCCCC1=O | -8.25%
95 | CCOc1cccc2c1OCC(=O)N(c1ccc3c(c1)OCCO3)C2 | -6.5%
96 | Cn1ccc(C(=O)N2CCCC2c2ccc3c(c2)OCCO3)cc1=O (centres undefined) | -2.74%
97 | COCCn1c(=O)n(Cc2ccccc2C)c2cc(C(=O)O)ccc21 | -7.93%
98 | CC(=O)NCCNC(=O)c1sccc1Br | -16.2%
99 | Cc1cccc(C2(CNC(=O)c3ccnc(N(C)C)c3)CCOCC2)c1 | 15.5%
100 | Cc1cc(OC(F)F)c(C(=O)NCC(O)c2cccc(F)c2)s1 (centres undefined) | 6.81%
101 | O=C(O)c1cc(S(=O)(=O)Nc2ccc(F)cc2Cl)cc2c1OCCO2 | 0.949%
102 | CCN1CCN(C(=O)c2cc(F)cc3nc(C)c(C)nc23)CC1 | -12.2%
103 | Cc1nc(C2CCCN2C(=O)Cc2ccc3c(c2)OCO3)nc(O)c1C (centres undefined) | -5.28%
104 | COc1cccc(N2CCC(CNC(=O)NCc3ccco3)C2)c1 (centres undefined) | -0.834%
105 | CCOc1cc(CNC(=O)N2CCC(Cc3cnn(C)c3)C2)ccn1 (centres undefined) | -10.6%
106 | CCN(CC)c1ccc(NC(=O)NCC2(C(N)=O)CCOCC2)cn1 | 1.3%
107 | Cc1ncsc1CCN(C)C(=O)c1ncccc1O | -7.99%
108 | Nc1nc(C2CCN(C(=O)c3cncs3)CC2)cs1 | -2.63%
109 | COc1ccccc1OCCn1c(C)c(C)oc1=O | 23.3%
110 | O=C(CC1CCCC1)N1C[C@H](OCc2ccncc2)[C@H]2OCCC[C@H]21 | -27.1%
111 | Cc1cc(C2CCCN(CC(=O)Nc3nc4c(s3)CCC4)C2)n[nH]1 (centres undefined) | 18.9%
112 | Cc1cc(C)n(CCNCc2cc(-c3ccccc3)c[nH]c2=O)n1 | -9.26%
113 | Fc1cc(Cl)cnc1N1CCCC(c2nccn2CC2CC2)C1 (centres undefined) | 22.7%
114 | Cc1ccc(N2CC[C@@H]3[C@@H]2CCN3Cc2ccsc2)nn1 | -0.146%

Source: ChEMBL document CHEMBL3507680, “University of Dundee, Gates Library screen for HepG2 cell viability”
